Results reported in US6664247B2, “Pyrazole compounds useful as protein kinase inhibitors” (Vertex Pharmaceuticals Incorporated, priority 2000, dated 2003).

Biological target: T1, Aurora-2 (Homo sapiens, UniProt O14965)
T1 sequence (O14965 1-403): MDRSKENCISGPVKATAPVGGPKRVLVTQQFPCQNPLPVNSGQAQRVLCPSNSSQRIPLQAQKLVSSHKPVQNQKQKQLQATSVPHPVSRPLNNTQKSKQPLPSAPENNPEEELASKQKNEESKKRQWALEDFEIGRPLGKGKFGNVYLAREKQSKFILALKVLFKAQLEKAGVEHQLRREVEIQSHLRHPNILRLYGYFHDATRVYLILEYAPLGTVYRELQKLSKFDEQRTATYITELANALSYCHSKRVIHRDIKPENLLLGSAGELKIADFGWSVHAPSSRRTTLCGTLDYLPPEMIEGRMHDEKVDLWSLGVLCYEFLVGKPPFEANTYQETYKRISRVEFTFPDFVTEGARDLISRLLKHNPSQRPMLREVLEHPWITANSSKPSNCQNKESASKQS
Test: Ki determination for the inhibition of Aurora-2 (coupled enzyme assay)
Format: biochemical
Conditions: 70 nM Aurora-2, 800 μM peptide LRRASLG, 30° C.
Experimental: To an assay stock buffer solution containing 0.1 M HEPES 7.5, 10 mM MgCl2, 1 mM DTT, 25 mM NaCl, 2.5 mM phosphoenolpyruvate, […], 30 mg/ml pyruvate kinase, 10 mg/ml lactate dehydrogenase, 40 mM ATP, and 800 μM peptide (LRRASLG, American Peptide, Sunnyvale, Calif.) was added a DMSO solution of a compound of the present invention to a final concentration of 30 μM. The resulting mixture was incubated at 30° C. for 10 min. The reaction was initiated by the addition of 10 μL of Aurora-2 stock solution to give a final concentration of 70 nM in the assay. […] The Ki values were determined from the rate data as a function of inhibitor concentration.

`Cc1cc(Nc2cc(-c3ccccc3)nc(Nc3ccccc3)n2)n[nH]1` [IIIc-1, (5-Methyl-2H-pyrazol-3-yl)-(6-phenyl-2-phenylamino-pyrimidin-4-yl)-amine] was tested, and the Ki was 100 to 1000 nM.
